Laboratory results taken from the NIST ThermoML archive (doi:10.1021/acs.jced.6b00526).

Assay: xn = mol fraction of the nth substance listed
Settings: 100 kPa, Liquid; for mass density: Vibrating tube method; for viscosity: Falling or rolling sphere viscometry

OCCCCO [1,4-butanediol] + O
Settings | mass density, 288.15 K [kg/m3] | mass density, 293.15 K [kg/m3] | mass density, 298.15 K [kg/m3] | mass density, 303.15 K [kg/m3] | mass density, 308.15 K [kg/m3] | mass density, 313.15 K [kg/m3] | mass density, 318.15 K [kg/m3] | viscosity, 293.15 K [mPa·s] | viscosity, 298.15 K [mPa·s] | viscosity, 303.15 K [mPa·s]
x2 = 0 | 1018.6 | 1016.3 | 1012.9 | 1009.9 | 1006.9 | 1003.2 | 1000.8 | 90.7 | 69.89 | 55.24
x2 = 0.0992 | 1020.8 | 1018.3 | 1014.8 | 1011.8 | 1008.9 | 1005.2 | 1002.6 | – | – | –
x2 = 0.1257 | – | – | – | – | – | – | – | 75.28 | 57.95 | 45.05
x2 = 0.152 | 1021.8 | 1019.3 | 1015.8 | 1012.8 | 1009.8 | 1006.1 | 1003.4 | – | – | –
x2 = 0.2039 | 1022.8 | 1020.3 | 1016.7 | 1013.7 | 1010.6 | 1006.9 | 1004.2 | – | – | –
x2 = 0.2513 | 1023.6 | 1021.1 | 1017.6 | 1014.5 | 1011.4 | 1007.6 | 1004.9 | – | – | –
x2 = 0.2783 | – | – | – | – | – | – | – | 58.11 | 44.52 | 33.59
x2 = 0.3003 | 1024.5 | 1021.9 | 1018.3 | 1015.2 | 1012.1 | 1008.3 | 1005.6 | – | – | –
x2 = 0.3033 | – | – | – | – | – | – | – | 54.65 | 42 | 31.63
x2 = 0.3534 | 1025.3 | 1022.7 | 1019.1 | 1015.9 | 1012.8 | 1009 | 1006.3 | – | – | –
x2 = 0.4009 | – | – | – | – | – | – | – | 44.04 | 33.94 | 25.07
x2 = 0.4399 | 1026.2 | 1023.6 | 1020 | 1016.8 | 1013.6 | 1009.8 | 1007.1 | – | – | –
x2 = 0.4482 | 1026.6 | 1024 | 1020.3 | 1017.1 | 1013.9 | 1010.1 | 1007.3 | – | – | –
x2 = 0.5008 | – | – | – | – | – | – | – | 33.85 | 25.34 | 18.65
x2 = 0.5011 | 1027.2 | 1024.5 | 1020.8 | 1017.7 | 1014.5 | 1010.6 | 1007.8 | – | – | –
x2 = 0.5515 | 1027.6 | 1025 | 1021.1 | 1017.9 | 1014.8 | 1010.9 | 1008.1 | – | – | –
x2 = 0.6114 | 1027.7 | 1025.1 | 1021.3 | 1018.2 | 1015.1 | 1011.2 | 1008.3 | – | – | –
x2 = 0.6527 | 1027.6 | 1025 | 1021.3 | 1018.1 | 1015.1 | 1011.2 | 1008.4 | – | – | –
x2 = 0.6662 | – | – | – | – | – | – | – | 19.58 | 13.9 | 10.11
x2 = 0.7003 | – | – | – | – | – | – | – | 16.6 | 11.57 | 8.774
x2 = 0.7005 | 1027.2 | 1024.5 | 1021 | 1017.8 | 1014.8 | 1011 | 1008.3 | – | – | –
x2 = 0.7501 | 1026.3 | 1023.6 | 1020.1 | 1016.9 | 1013.9 | 1010.3 | 1007.4 | – | – | –
x2 = 0.7998 | 1024.2 | 1021.5 | 1018.3 | 1015.3 | 1012.5 | 1008.9 | 1006.2 | – | – | –
x2 = 0.8013 | – | – | – | – | – | – | – | 9.634 | 6.814 | 5.035
x2 = 0.8492 | 1021.3 | 1018.9 | 1015.8 | 1012.9 | 1010.2 | 1007.1 | 1004 | – | – | –
x2 = 0.8979 | – | – | – | – | – | – | – | 4.127 | 3.267 | 2.369
x2 = 0.9001 | 1015.9 | 1014.1 | 1011.7 | 1009.2 | 1006.7 | 1003.6 | 1000.9 | – | – | –
x2 = 0.9488 | 1008.1 | 1006.7 | 1004.7 | 1003.3 | 1001.1 | 998.7 | 996.2 | – | – | –
